Data published in patent US20180155757A1, “IDENTIFICATION OF BACTERIA THAT ARE RESISTANT TO CARBAPENEMS BY MEMBRANE IMPERVIOUSNESS” (BIOMÉRIEUX, priority 2015, published 2018).

Tests used:
Experiment in all cases: Etest MIC of indicator carbapenems on MH II agar without/with PMBN
Type in all cases: cell-based
[1] = system: E. cloacae 9304026
Method: (§1) The determinations of antibiotic MIC were carried out on solid culture media with the Etest® method. To do this, Etest® strips (bioMérieux, France) were used: • Etest® Imipenem IM 32, and • Etest® Ertapenem ETP 32, and also solid culture media, differing from one another by virtue of their non-inhibitory concentrations of PMBN.
(§2) These solid culture media are prepared in Petri dishes (0=145 mm; V=50 ml) on a base of MH II Agar (Becton Dickinson®, United States), more or less supplemented with PMBN. The PMBN concentrations range from 0 up to concentrations equivalent to one fifth of the MIC of PMBN (⅕ MICPMBN).
(§3) Using a swab and the Retro C80™ rota-plater (bioMérieux, France), the culture media were inoculated with the bacteria, originating from an inoculum of 0.5 McFarland, prepared in 0.85% NaCl solution from colonies subcultured the day before on MH II agar.
(§4) The various Etest® strips are then deposited on the surface of the culture media. After 16 to 20 hours of incubation at 35° C., the MICS were read.
(§5) To do this, imipenem and ertapenem were used as indicator carbapenems. Non-inhibitory concentrations of PMBN, equivalent to concentrations of one tenth ( 1/10), one eighth (⅛) and one fifth (⅕) of the MIC of PMBN, were applied.

[2] = system: E. coli 1008077 (VIM-1 producer)
Method: as §1, §2, §3, §4, §5

[3] = system: E. cloacae 1204053 (membrane impermeability)
Method in brief: (§6)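 Etest imipenem/ertapenem/meropenem (IM 32, ETP 32, MP 32). Medium: MH II agar, PMBN 0 to ⅕ MIC. Inoculum: 0.5 McFarland, 0.85% NaCl, swabbed. Read: 16–20 h at 35° C.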

[4] = system: E. cloacae 1204153 (membrane impermeability); conditions: in µg/mL
Method in brief: as §6

[5] = system: K. pneumoniae 1012142 (KPC-2 producer)
Method in brief: as §6

[6] = system: E. cloacae 1204058 (membrane impermeability); conditions: in µg/mL
Method in brief: as §6

[7] = system: K. pneumoniae 1204039 (membrane impermeability)
Method in brief: as §6

[8] = system: E. cloacae 1008074 (VIM producer)
Method in brief: as §6

[9] = system: E. cloacae 1109137 (OXA-48 producer)
Method in brief: as §6

[10] = system: K. pneumoniae 1204036 (membrane impermeability)
Method in brief: as §6

[11] = system: E. cloacae 1204056 (membrane impermeability)
Method in brief: as §6

[12] = system: E. cloacae 1204052 (membrane impermeability)
Method in brief: as §6

[13] = system: K. pneumoniae 1108003 (KPC-3 producer)
Method in brief: as §6

[14] = system: E. coli 1008078 (VIM producer)
Method in brief: as §6

[15] = system: Enterobacter aerogenes EA 5 (porin−); conditions: Klebsiella aerogenes
Method in brief: as §6

[16] = system: K. pneumoniae KP 63 (porin−); conditions: Klebsiella pneumoniae
Method in brief: as §6

[17] = system: E. cloacae 1008080 (IMP producer); conditions: in µg/mL
Method in brief: as §6

[18] = system: E. coli SAB 100 (porin−); conditions: Escherichia coli
Method in brief: as §6

[19] = system: E. cloacae 1204051 (membrane impermeability)
Method in brief: as §6

For `C[C@@H](O)[C@H]1C(=O)N2C(C(=O)O)=C(S[C@@H]3CN[C@H](C(=O)Nc4cccc(C(=O)O)c4)C3)[C@H](C)[C@H]12` [ETP, ertapenem], which MIC ([1]; [PMBN] 0) is on record?
Its MIC is 16 µg/mL.

And the MIC ([1]; [PMBN] MIC/5)?
Its MIC is 8 µg/mL.

What about the MIC ([1]; [PMBN] MIC/8) of the same compound?
Its MIC is 8 µg/mL.

And the MIC ([1]; [PMBN] MIC/10)?
The MIC was 4 µg/mL.

And the MIC ([2]; [PMBN] 0)?
Its MIC is 8 µg/mL.

And the MIC ([2]; [PMBN] MIC/5)?
Its MIC is 4 µg/mL.

What about the MIC ([2]; [PMBN] MIC/8) of the same compound?
The MIC was 4 µg/mL.

What about the MIC ([2]; [PMBN] MIC/10) of the same compound?
The MIC was 4 µg/mL.

What about the MIC ([3]; [PMBN] 0, Table 4a) of the same compound?
Its MIC is > 32 µg/mL.

What about the MIC ([3]; [PMBN] 100, Table 4a) of the same compound?
Its MIC is > 32 µg/mL.

And the MIC ([3]; [PMBN] 200, Table 4a)?
Its MIC is > 32 µg/mL.

What about the MIC ([3]; [PMBN] 300, Table 4a) of the same compound?
The MIC was 4 µg/mL.

What about the MIC ([4]; [PMBN] 0, Table 4a) of the same compound?
Its MIC is >32.

What about the MIC ([4]; [PMBN] 100, Table 4a) of the same compound?
The MIC was 8.

What about the MIC ([4]; [PMBN] 200, Table 4a) of the same compound?
Its MIC is 4.

What about the MIC ([4]; [PMBN] 300, Table 4a) of the same compound?
The MIC was 3.

What about the MIC ([5]; [PMBN] 0, Table 4a) of the same compound?
The MIC was 32 µg/mL.

What about the MIC ([5]; [PMBN] 100, Table 4a) of the same compound?
The MIC was > 32 µg/mL.

What about the MIC ([5]; [PMBN] 200, Table 4a) of the same compound?
Its MIC is > 32 µg/mL.

And the MIC ([5]; [PMBN] 300, Table 4a)?
The MIC was > 32 µg/mL.

What about the MIC ([6]; [PMBN] 0, Table 4a) of the same compound?
Its MIC is >32.

And the MIC ([6]; [PMBN] 100, Table 4a)?
The MIC was 8-12.

What about the MIC ([6]; [PMBN] 300, Table 4a) of the same compound?
The MIC was 0.75.

What about the MIC ([7]; [PMBN] 0, Table 4a) of the same compound?
Its MIC is 2 µg/mL.

What about the MIC ([7]; [PMBN] 100, Table 4a) of the same compound?
The MIC was 1.5 µg/mL.

What about the MIC ([7]; [PMBN] 200, Table 4a) of the same compound?
Its MIC is 1.5 µg/mL.

And the MIC ([7]; [PMBN] 300, Table 4a)?
The MIC was 1 µg/mL.

What about the MIC ([8]; [PMBN] 0, Table 4a) of the same compound?
Its MIC is 0.38 µg/mL.

And the MIC ([8]; [PMBN] 100, Table 4a)?
Its MIC is 0.5 µg/mL.

And the MIC ([8]; [PMBN] 200, Table 4a)?
The MIC was 0.5 µg/mL.

What about the MIC ([8]; [PMBN] 300, Table 4a) of the same compound?
The MIC was 0.5 µg/mL.

What about the MIC ([9]; [PMBN] 0, Table 4a) of the same compound?
The MIC was 24 µg/mL.

And the MIC ([9]; [PMBN] 200, Table 4a)?
Its MIC is 12 µg/mL.

What about the MIC ([9]; [PMBN] 300, Table 4a) of the same compound?
Its MIC is > 32 µg/mL.

And the MIC ([10]; [PMBN] 0, Table 4a)?
Its MIC is > 32 µg/mL.

What about the MIC ([10]; [PMBN] 100, Table 4a) of the same compound?
Its MIC is > 32 µg/mL.

What about the MIC ([10]; [PMBN] 200, Table 4a) of the same compound?
Its MIC is > 32 µg/mL.

And the MIC ([10]; [PMBN] 300, Table 4a)?
The MIC was > 32 µg/mL.

And the MIC ([11]; [PMBN] 0, Table 4a)?
Its MIC is > 32 µg/mL.

And the MIC ([11]; [PMBN] 100, Table 4a)?
Its MIC is 12 µg/mL.

And the MIC ([11]; [PMBN] 200, Table 4a)?
The MIC was 3 µg/mL.

And the MIC ([11]; [PMBN] 300, Table 4a)?
The MIC was 1 µg/mL.

And the MIC ([12]; [PMBN] 0, Table 4a)?
The MIC was > 32 µg/mL.

And the MIC ([12]; [PMBN] 100, Table 4a)?
Its MIC is 12 µg/mL.

And the MIC ([12]; [PMBN] 200, Table 4a)?
Its MIC is 8 µg/mL.

What about the MIC ([12]; [PMBN] 300, Table 4a) of the same compound?
Its MIC is 3 µg/mL.

And the MIC ([13]; [PMBN] 0, Table 4a)?
The MIC was 8 µg/mL.

What about the MIC ([13]; [PMBN] 100, Table 4a) of the same compound?
The MIC was 24 µg/mL.

And the MIC ([13]; [PMBN] 200, Table 4a)?
The MIC was > 32 µg/mL.

And the MIC ([13]; [PMBN] 300, Table 4a)?
Its MIC is > 32 µg/mL.

What about the MIC ([14]; [PMBN] 0, Table 4a) of the same compound?
Its MIC is 2 µg/mL.

What about the MIC ([14]; [PMBN] 100, Table 4a) of the same compound?
Its MIC is 0.75 µg/mL.

And the MIC ([14]; [PMBN] 200, Table 4a)?
Its MIC is 0.5 µg/mL.

And the MIC ([14]; [PMBN] 300, Table 4a)?
The MIC was 0.38 µg/mL.

And the MIC ([15]; E. aerogenes EA 5 (porin−), [PMBN] 0, Table 4)?
Its MIC is 6 µg/mL.

What about the MIC ([15]; E. aerogenes EA 5 (porin−), [PMBN] 50 μg/ml) of the same compound?
The MIC was 2 µg/mL.

What about the MIC ([15]; E. aerogenes EA 5 (porin−), [PMBN] 100 μg/ml) of the same compound?
Its MIC is 2 µg/mL.

And the MIC ([15]; E. aerogenes EA 5 (porin−), [PMBN] 150 μg/ml)?
Its MIC is 1.5 µg/mL.

What about the MIC ([15]; E. aerogenes EA 5 (porin−), [PMBN] 200 μg/ml) of the same compound?
Its MIC is 1 µg/mL.

What about the MIC ([15]; EA 5 (porin−), [PMBN] 0, Table 2) of the same compound?
The MIC was 32 µg/mL.

What about the MIC ([15]; EA 5 (porin−), [PMBN] MIC/5) of the same compound?
Its MIC is 4 µg/mL.

What about the MIC ([15]; EA 5 (porin−), [PMBN] MIC/8) of the same compound?
Its MIC is 4 µg/mL.

What about the MIC ([15]; EA 5 (porin−), [PMBN] MIC/10) of the same compound?
Its MIC is 4 µg/mL.

What about the MIC ([16]; [PMBN] 0) of the same compound?
The MIC was 1 µg/mL.

And the MIC ([16]; [PMBN] 50 μg/ml)?
Its MIC is 0.5 µg/mL.

And the MIC ([16]; [PMBN] 100 μg/ml)?
The MIC was 0.38 µg/mL.

And the MIC ([16]; [PMBN] 150 μg/ml)?
The MIC was 0.19 µg/mL.

And the MIC ([16]; [PMBN] 200 μg/ml)?
The MIC was 0.125 µg/mL.

What about the MIC ([17]; [PMBN] 0, Table 4a) of the same compound?
Its MIC is 16.

What about the MIC ([17]; [PMBN] 100, Table 4a) of the same compound?
Its MIC is 24.

What about the MIC ([17]; [PMBN] 200, Table 4a) of the same compound?
The MIC was >32.

What about the MIC ([17]; [PMBN] 300, Table 4a) of the same compound?
Its MIC is 12-24.

What about the MIC ([18]; [PMBN] 0) of the same compound?
Its MIC is 1.5 µg/mL.

What about the MIC ([18]; [PMBN] 50 μg/ml) of the same compound?
Its MIC is 0.19 µg/mL.

And the MIC ([18]; [PMBN] 100 μg/ml)?
The MIC was 0.19 µg/mL.

What about the MIC ([18]; [PMBN] 150 μg/ml) of the same compound?
The MIC was 0.125 µg/mL.

And the MIC ([18]; [PMBN] 200 μg/ml)?
The MIC was 0.125 µg/mL.

What about the MIC ([19]; [PMBN] 0, Table 4a) of the same compound?
Its MIC is > 32 µg/mL.

What about the MIC ([19]; [PMBN] 100, Table 4a) of the same compound?
Its MIC is 12 µg/mL.

And the MIC ([19]; [PMBN] 200, Table 4a)?
The MIC was 4 µg/mL.

What about the MIC ([19]; [PMBN] 300, Table 4a) of the same compound?
The MIC was 3 µg/mL.
